Columns and labels:
Histone deacetylase 11 = biological target: T1, Histone deacetylase 11 (Homo sapiens, UniProt Q96DB2); assay: Inhibition of human HDAC11 by fluorimetric assay
T1 sequence (Q96DB2 whole entry): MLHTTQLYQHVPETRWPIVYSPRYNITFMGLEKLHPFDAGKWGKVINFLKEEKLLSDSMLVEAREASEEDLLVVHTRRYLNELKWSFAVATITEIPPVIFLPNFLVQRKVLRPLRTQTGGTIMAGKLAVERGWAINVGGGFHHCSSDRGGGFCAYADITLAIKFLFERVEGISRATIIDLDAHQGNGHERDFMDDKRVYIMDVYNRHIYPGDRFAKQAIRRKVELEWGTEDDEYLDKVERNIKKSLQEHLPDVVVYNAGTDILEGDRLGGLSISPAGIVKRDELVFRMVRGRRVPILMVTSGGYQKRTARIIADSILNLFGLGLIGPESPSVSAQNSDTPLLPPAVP

HCT-116 = assay: cells; assay type: functional, cell-based; details: Homo sapiens, HCT-116, 48 h
Histone deacetylase 5 = Histone deacetylase 5 (Homo sapiens, UniProt Q9UQL6); assay: Inhibition of human HDAC5 by fluorimetric assay
[1] = biological target: T2, Polyamine deacetylase HDAC10 (Homo sapiens, UniProt Q969S8); assay: Inhibition of human HDAC10 by fluorimetric assay
T2 sequence (Q969S8 whole entry): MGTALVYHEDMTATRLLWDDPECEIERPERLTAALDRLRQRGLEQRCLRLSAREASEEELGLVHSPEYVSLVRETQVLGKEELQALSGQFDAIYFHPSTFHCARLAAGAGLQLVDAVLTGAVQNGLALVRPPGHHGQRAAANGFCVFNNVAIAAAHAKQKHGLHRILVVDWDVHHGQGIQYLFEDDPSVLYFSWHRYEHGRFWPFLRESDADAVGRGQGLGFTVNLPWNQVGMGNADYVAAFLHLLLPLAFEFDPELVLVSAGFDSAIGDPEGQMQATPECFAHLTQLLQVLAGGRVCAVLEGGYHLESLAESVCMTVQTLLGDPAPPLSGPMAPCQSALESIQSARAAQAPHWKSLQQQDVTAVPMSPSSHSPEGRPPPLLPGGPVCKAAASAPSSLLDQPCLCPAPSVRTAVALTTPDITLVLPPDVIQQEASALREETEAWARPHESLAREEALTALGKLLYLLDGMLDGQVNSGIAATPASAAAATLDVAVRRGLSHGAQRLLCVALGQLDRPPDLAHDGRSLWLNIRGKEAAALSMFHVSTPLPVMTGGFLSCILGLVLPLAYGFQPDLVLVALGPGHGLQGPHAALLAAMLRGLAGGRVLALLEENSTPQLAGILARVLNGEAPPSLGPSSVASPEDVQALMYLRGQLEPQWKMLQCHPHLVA

[2] = biological target: T3, Protein deacetylase HDAC6 (Homo sapiens, UniProt Q9UBN7); assay: Inhibition of human HDAC6 by fluorimetric assay
T3 sequence (Q9UBN7 whole entry): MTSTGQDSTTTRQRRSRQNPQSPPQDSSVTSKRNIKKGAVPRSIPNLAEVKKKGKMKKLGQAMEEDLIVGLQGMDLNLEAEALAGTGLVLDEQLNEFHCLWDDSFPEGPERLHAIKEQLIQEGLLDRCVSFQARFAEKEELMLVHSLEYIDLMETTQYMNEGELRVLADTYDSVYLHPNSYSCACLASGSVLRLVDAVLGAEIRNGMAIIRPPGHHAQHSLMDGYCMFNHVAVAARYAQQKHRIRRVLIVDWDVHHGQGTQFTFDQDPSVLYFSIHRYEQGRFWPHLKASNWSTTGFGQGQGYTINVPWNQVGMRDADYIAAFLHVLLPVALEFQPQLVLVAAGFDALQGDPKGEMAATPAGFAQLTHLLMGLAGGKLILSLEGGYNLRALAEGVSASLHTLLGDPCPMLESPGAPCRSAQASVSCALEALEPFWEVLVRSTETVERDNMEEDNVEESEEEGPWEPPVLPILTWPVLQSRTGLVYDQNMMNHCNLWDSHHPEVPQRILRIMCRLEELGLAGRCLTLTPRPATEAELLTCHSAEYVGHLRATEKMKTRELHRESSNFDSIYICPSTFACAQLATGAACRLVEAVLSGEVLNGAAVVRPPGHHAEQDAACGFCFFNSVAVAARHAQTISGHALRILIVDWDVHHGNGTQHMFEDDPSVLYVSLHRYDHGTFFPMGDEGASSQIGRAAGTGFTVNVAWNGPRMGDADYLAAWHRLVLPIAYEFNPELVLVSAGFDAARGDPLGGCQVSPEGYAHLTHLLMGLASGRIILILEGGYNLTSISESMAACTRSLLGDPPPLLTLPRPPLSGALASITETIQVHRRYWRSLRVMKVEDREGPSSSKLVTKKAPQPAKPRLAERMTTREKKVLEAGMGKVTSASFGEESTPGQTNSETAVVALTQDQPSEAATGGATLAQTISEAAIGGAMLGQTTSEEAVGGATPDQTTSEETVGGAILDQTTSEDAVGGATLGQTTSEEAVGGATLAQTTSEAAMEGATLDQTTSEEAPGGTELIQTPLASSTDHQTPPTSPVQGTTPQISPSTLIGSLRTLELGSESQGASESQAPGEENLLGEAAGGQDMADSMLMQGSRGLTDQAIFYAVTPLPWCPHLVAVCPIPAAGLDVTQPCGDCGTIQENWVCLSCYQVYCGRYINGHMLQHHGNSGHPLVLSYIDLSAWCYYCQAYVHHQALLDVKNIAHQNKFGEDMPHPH

Histone deacetylase 8 = biological target: T4, Histone deacetylase 8 (Homo sapiens, UniProt Q9BY41); assay: Inhibition of human HDAC8 by fluorimetric assay
T4 sequence (Q9BY41 whole entry): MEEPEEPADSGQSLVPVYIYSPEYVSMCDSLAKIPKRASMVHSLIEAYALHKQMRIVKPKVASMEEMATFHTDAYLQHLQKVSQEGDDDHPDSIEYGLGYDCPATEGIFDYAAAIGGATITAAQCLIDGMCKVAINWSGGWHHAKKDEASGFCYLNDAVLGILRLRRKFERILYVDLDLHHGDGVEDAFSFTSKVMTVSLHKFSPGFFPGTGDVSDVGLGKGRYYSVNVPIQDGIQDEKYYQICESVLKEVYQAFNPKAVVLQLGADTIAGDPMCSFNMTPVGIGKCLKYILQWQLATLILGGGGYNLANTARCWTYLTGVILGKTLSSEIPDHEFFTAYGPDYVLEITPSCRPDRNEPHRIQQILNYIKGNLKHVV

NCI-H460 = assay: cells; assay type: functional, cell-based; details: Homo sapiens, NCI-H460, 48 h
Histone deacetylase 1 = Histone deacetylase 1 (Homo sapiens, UniProt Q13547); assay: Inhibition of human HDAC1 by fluorimetric assay
Histone deacetylase 9 = Histone deacetylase 9 (Homo sapiens, UniProt Q9UKV0); assay: Inhibition of human HDAC9 by fluorimetric assay
Histone deacetylase 4 = Histone deacetylase 4 (Homo sapiens, UniProt P56524); assay: Inhibition of human HDAC4 by fluorimetric assay
Histone deacetylase 3 = Histone deacetylase 3 (Homo sapiens, UniProt O15379)
Histone deacetylase 7 = biological target: T5, Histone deacetylase 7 (Homo sapiens, UniProt Q8WUI4); assay: Inhibition of human HDAC7 by fluorimetric assay
T5 sequence (Q8WUI4 whole entry): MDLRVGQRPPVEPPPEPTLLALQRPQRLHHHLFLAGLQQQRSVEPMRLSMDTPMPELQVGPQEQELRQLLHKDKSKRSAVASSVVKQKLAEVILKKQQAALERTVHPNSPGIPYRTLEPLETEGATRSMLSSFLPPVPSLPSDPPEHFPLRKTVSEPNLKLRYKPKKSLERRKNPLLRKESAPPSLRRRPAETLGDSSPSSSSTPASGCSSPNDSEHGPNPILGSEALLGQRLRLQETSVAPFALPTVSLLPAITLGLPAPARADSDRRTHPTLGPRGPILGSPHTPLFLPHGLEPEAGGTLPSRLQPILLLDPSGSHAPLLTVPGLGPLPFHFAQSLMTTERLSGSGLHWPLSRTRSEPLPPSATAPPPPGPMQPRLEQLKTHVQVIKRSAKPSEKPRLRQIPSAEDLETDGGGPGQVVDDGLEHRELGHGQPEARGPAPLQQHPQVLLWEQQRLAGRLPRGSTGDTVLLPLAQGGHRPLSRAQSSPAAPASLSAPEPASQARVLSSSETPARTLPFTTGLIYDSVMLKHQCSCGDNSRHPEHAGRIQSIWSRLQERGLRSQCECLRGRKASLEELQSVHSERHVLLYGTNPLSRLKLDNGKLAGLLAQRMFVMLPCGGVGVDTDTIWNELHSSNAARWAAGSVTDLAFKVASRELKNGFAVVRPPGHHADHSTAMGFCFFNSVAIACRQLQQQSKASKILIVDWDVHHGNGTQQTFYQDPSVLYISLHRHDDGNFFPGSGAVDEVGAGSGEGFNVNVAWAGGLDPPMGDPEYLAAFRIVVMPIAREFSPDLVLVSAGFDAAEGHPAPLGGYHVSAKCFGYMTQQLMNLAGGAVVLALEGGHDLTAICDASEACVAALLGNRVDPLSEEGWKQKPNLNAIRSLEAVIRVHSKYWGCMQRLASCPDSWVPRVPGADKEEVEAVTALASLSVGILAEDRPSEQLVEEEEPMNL

Histone deacetylase 2 = Histone deacetylase 2 (Homo sapiens, UniProt Q92769)
Histone deacetylase 2, sequence (Q92769 whole entry): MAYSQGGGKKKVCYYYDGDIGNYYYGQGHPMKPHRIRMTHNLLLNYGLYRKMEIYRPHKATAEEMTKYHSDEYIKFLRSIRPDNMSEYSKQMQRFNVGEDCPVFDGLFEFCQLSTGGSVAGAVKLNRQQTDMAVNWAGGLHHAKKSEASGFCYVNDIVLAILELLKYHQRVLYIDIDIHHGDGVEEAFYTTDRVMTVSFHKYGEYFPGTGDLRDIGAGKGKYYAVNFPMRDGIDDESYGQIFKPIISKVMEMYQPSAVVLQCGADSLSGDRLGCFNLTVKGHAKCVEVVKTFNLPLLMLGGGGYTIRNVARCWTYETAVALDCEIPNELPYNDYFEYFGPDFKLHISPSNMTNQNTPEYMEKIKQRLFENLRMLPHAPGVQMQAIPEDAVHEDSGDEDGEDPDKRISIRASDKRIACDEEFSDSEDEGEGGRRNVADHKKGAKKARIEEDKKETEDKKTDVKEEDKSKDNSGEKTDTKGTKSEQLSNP

Histone deacetylase 1, sequence (Q13547 whole entry): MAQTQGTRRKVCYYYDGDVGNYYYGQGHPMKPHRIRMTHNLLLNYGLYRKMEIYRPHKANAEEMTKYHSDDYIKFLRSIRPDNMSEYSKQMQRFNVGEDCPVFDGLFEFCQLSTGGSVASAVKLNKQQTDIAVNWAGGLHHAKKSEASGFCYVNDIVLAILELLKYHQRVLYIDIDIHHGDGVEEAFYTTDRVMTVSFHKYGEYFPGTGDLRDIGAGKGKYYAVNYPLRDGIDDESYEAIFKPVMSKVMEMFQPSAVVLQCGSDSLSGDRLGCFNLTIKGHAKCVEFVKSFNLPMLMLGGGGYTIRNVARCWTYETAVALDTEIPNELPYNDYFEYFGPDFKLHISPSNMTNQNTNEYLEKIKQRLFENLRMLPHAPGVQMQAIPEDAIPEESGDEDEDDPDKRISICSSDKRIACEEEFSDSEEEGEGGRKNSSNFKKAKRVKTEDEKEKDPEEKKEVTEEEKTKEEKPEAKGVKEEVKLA
Histone deacetylase 3, sequence (O15379 whole entry): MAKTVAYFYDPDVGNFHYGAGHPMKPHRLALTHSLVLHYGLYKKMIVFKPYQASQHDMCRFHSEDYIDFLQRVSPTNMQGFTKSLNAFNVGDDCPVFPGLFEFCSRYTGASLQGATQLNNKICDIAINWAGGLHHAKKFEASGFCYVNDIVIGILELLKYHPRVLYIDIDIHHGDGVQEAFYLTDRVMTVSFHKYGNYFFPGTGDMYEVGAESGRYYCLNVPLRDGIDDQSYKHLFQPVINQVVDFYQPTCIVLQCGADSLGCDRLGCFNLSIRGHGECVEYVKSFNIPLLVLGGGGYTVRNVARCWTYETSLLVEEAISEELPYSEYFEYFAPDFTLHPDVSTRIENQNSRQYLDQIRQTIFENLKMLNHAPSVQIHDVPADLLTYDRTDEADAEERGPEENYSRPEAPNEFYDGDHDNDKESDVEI
Histone deacetylase 9, sequence (Q9UKV0 whole entry): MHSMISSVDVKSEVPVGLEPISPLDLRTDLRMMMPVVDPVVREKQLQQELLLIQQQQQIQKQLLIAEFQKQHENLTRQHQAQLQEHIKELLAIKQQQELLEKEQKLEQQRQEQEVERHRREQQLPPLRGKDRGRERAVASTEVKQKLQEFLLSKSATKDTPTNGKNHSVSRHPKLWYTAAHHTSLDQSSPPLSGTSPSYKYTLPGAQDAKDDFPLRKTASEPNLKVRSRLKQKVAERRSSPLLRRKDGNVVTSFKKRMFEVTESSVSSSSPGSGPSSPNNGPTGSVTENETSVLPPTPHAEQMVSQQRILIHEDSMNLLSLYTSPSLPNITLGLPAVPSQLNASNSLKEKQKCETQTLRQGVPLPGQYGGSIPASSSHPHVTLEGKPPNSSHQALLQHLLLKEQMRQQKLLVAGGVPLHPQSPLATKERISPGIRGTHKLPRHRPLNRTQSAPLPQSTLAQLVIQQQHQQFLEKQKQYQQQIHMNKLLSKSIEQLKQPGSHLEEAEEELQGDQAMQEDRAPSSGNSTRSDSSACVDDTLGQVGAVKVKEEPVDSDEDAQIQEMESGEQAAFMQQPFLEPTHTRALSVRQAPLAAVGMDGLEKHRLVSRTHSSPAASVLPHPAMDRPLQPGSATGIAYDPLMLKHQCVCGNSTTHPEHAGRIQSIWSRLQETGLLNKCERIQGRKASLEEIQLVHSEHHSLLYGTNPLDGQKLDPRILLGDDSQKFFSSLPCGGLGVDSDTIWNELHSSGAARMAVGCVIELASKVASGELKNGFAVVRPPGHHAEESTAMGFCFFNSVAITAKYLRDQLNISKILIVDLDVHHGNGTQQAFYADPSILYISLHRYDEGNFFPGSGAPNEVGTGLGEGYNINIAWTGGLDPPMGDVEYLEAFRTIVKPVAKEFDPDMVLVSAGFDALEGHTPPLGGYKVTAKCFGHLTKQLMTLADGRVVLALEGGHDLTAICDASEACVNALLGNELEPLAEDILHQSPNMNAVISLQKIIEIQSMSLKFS
Histone deacetylase 4, sequence (P56524 whole entry): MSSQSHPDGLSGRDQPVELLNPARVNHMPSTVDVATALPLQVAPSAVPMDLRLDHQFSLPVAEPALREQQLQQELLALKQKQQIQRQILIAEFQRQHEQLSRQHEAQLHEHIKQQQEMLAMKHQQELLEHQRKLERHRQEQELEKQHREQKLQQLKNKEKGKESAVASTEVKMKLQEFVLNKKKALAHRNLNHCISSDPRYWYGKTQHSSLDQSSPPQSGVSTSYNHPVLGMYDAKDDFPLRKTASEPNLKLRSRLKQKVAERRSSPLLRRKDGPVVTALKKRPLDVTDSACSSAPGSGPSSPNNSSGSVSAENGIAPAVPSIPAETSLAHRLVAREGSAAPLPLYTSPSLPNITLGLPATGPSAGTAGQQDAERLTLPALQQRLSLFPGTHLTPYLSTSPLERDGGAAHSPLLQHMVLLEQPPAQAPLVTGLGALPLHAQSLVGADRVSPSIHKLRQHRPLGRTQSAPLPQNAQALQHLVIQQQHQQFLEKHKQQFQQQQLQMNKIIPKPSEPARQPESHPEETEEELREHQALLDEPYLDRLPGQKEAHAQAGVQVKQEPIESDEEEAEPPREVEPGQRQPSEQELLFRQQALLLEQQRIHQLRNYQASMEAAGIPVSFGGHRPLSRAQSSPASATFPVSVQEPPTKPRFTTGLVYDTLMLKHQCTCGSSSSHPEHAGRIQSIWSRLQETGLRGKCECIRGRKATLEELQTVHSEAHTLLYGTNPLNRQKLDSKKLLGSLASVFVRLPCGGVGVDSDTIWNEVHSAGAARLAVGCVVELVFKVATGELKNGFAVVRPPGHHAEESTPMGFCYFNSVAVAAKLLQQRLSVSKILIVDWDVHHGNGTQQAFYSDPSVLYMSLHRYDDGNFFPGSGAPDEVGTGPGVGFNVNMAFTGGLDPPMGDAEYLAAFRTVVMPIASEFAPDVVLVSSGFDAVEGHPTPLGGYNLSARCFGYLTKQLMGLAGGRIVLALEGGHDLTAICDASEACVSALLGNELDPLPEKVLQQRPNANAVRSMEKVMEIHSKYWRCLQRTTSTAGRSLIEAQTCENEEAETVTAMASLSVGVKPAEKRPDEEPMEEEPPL
Histone deacetylase 5, sequence (Q9UQL6 whole entry): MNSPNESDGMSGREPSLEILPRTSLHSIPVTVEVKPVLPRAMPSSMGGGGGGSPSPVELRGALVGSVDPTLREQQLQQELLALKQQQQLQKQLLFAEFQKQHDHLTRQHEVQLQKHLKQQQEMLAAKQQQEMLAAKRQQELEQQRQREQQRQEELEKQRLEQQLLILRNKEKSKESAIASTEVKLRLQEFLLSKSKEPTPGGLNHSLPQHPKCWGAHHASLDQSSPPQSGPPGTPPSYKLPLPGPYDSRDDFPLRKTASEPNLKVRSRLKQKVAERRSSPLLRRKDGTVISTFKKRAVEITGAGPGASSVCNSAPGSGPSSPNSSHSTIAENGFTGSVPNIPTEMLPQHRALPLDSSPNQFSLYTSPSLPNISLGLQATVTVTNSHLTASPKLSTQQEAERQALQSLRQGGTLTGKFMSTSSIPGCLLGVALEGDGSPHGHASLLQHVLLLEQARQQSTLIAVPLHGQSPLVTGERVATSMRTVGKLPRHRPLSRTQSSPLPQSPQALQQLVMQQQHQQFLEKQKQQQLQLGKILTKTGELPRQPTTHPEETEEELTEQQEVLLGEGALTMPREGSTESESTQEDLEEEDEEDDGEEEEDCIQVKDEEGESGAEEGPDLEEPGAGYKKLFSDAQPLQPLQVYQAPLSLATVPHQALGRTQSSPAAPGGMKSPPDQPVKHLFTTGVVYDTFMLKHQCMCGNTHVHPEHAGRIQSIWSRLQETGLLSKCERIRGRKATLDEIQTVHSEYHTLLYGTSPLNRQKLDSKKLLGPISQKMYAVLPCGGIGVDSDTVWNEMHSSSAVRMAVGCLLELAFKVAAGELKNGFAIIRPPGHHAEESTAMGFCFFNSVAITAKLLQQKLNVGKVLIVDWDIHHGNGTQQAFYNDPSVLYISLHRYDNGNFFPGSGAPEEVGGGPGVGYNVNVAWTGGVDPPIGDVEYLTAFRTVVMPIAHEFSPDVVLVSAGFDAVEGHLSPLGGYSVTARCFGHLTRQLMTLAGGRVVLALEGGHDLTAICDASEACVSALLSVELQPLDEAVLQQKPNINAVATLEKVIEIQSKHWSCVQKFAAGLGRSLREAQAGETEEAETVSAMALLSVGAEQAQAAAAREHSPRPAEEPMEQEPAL

SMILES	IC50 (Histone deacetylase 11) [nM]	IC50 (HCT-116) [nM]	IC50 (Histone deacetylase 5) [nM]	IC50 [1] [nM]	IC50 [2] [nM]	IC50 (Histone deacetylase 8) [nM]	IC50 (NCI-H460) [nM]	IC50 (Histone deacetylase 1) [nM]	IC50 (Histone deacetylase 9) [nM]	IC50 (Histone deacetylase 4) [nM]	IC50 (Histone deacetylase 3) [nM]	IC50 (Histone deacetylase 7) [nM]	IC50 (Histone deacetylase 2) [nM]
O=C(CCCCCC1OCCCCCOc2ccccc2NC1=O)NO (racemic)	1210	690	1340	1530	15.6	643	2000	949	1900	2580	369	1720	1930
O=C(/C=C/c1ccc(CN(CCO)CCc2c[nH]c3ccccc23)cc1)NO [DACINOSTAT]		18					70						
COc1cc2cc(c1)COc1ccccc1NC(=O)C(CCCCCC(=O)NO)OC/C=C\2 (racemic)	57.7	450	55.4	70.7	1.97	119	880	30.7	99.6	159	39.6	72.6	207
CC(/C=C/C(=O)NO)=C\[C@@H](C)C(=O)c1ccc(N(C)C)cc1 [TRICHOSTATIN]		43					100						
O=C(CCCCCC1OCCCCCCCOc2ccccc2NC1=O)NO (racemic)	546	350	695	958	9.38	286	620	439	1040	1250	240		1540
COc1cc2cc(c1)COc1ccccc1NC(=O)[C@H](CCCCCC(=O)NO)OC/C=C\2	22.9	690	62.2	62.5	0.84	198	1050	31.7	60.6	79.4	55.7	27.8	158
O=C(CCCCCC1OCCCCCCOc2ccccc2NC1=O)NO (racemic)	564	580	878	683	10.1	1100	1000	560	687	1200	176		1570
COc1cc2cc(c1)COc1ccccc1NC(=O)[C@@H](CCCCCC(=O)NO)OCCC2	174	850	150	200	3.92	90.7	680	102	322	454	94.5		425
COc1cc2cc(c1)COc1ccccc1NC(=O)[C@@H](CCCCCC(=O)NO)OC/C=C\2	97.1	640	155	152	10.2	206	820	78.1	302	284	89	180	382
COc1ccc(COC(CCCCCC(=O)NO)C(=O)Nc2ccccc2)cc1 (racemic)	197		134	179	20.1	331		53.4	247	648	131		254
COc1cc2cc(c1)COc1ccccc1NC(=O)C(CCCCCC(=O)NO)OCCC2 (racemic)	226	690	341	320	8.44	444	870	204	336	447	246		793
COc1cc2cc(c1)COc1ccccc1NC(=O)[C@H](CCCCCC(=O)NO)OCCC2	103	520	109	190	3.43	136	740	72.2	123	118	93.6		268
